Measured values from patent US20250169496A1, “USE OF 2-AMINO-3-HYDROXY-3-METHYLBUTYRIC ACID AND/OR 2-AMINO-3-(4-HYDROXYPHENYL) BUTYRIC ACID” (NANJING TIANNONG BIOTECHNOLOGY CO., LTD., priority 2021, published 2025).

Columns and labels:
[1] = tested on: ryegrass under high-temperature stress; assay: Ryegrass under high-temperature stress; format: in vivo; settings: for PIABS (photosynthetic performance index): ryegrass after 45° C. for 12 h; for Heat damage index: 45° C. 12 h, recovered 7 d
Description: Set 4 groups for each concentration and meanwhile set a room-temperature blank control. Weigh 0.8 g of ryegrass seeds per bowl, sow them in bowls with a diameter of 8.5 cm, and grow in a greenhouse at 25° C., RH 60%-70% and luminous intensity of 200 μmol m^−2s^−1(12 h illumination/12 h darkness). Start treatment after ryegrass has grown for 7 dby the method of spraying a 2-amino-3-(4-hydroxyphenyl) butyric acid solution on the leaf surface twice in 24 h.24 h after the second treatment, transfer them to an illumination incubator of 45° C. for high-temperature stress treatment, and after 12 h, conduct dark treatment at room temperature for 30 min, then determine the chlorophyll fluorescence of […] leaves by plant efficiency Handy-PEA, then transfer the plants to a 25° C. greenhouse and recover them for 7 d, observe and calculate the damage condition of the plants and calculate the heat damage levels. The heat damage grading standard is shown in Table 9 and the heat damage calculation formula is as follows.

[2] = tested on: Pseudomonas syringae PstDC3000; assay: Induced resistance of Arabidopsis to infection of Pseudomonas syringae; format: in vivo; settings: for Disease index: Arabidopsis 3 d after PstDC3000 inoculation; for CFU/mg (number of bacteria per mg of leaves): Arabidopsis leaves 3 d after PstDC3000 inoculation; for Decrease of disease index / Decrease of number of bacteria per mg of leaves: compared to blank control
Description: Take 2-amino-3-hydroxy-3-methylbutyric acid, dissolve it in sterile water, dilute the solution with sterile water by gradient into 100 nM, 1,000 nM and 10,000 nM solutions, set a blank control, and meanwhile add 0.02% Tween 20 as a surfactant. Spread Pseudomonas syringaePstDC3000 on an LB plate, and culture it at 28° C. for 48h; pick a monoclonal colony, inoculate it in a 50 mL centrifuge tube containing 2 mL of medium, culture it on a shaker at 28° C., 250 rpm, monitor changes of OD600 of the bacterial solution once every 1-2 h, and stop bacteria culturing before OD600 reaches 0.8; transfer 1 mL of the bacterial solution to a sterile 1.5 mL centrifuge tube, centrifuge it at 8000 rpm for 2 min, and collect the precipitate; remove the supernatant, wash the precipitate with 10 mM magnesium chloride for three times and centrifuge, lastly re-suspend PstDC3000 in the 10 mM magnesium chloride until its OD600 reaches 0.001, and keep it for future use. Soake Arabidopsis seeds in 75% alcohol for 3 min, then wash them with sterile water for 4 times, inoculate it in culture dishes filled with ½ MS medium, 12 seeds per dish, vernalize the ½ MS culture dishes containing seeds at 4° C. for 3 d to break dormancy, then put them in a 22° C. culture room with luminous intensity of 100μE m^−2s-^1(16 hillumination/8 h darkness), slowly pour the above 2-amino-3-hydroxy-3-methylbutyric acid at different concentrations into the culture dishes until the entire Arabidopsis seedlings are submerged after the seedlings have grown for 2 weeks, maintain this state for 2-3 minutes, and then pour the treatment solution out of the culture dishes, treat it once every 24 h, twice in total, inoculate PstDC3000 suspension (OD600=0.01) to Arabidopsis leaves by the same submerging method 24 h after the second treatment, seal the culture dishes with medical breathable adhesive after the inoculation, put them in the culture room for continued culturing. 3 d after, determine the number of bacteria after different treatments, observe the morbidity of Arabidopsis, and calculate the disease index by the method same as the disease index calculation formula in Embodiment 2.
Grading standard of diseases caused by PstDC3000(with leaf as a unit): • Level 0: No disease spot on the leaf surface; • Level 1: The area of the disease spots accounts for 0%-10% of the whole leaf area; • Level 2: The area of the disease spots accounts for 10%-25% of the whole leaf area; • Level 3: The area of the disease spots accounts for 25%-50% of the whole leaf area; • Level 4: The area of the disease spots accounts for 50%-75% of the whole leaf area; • Level 5: The area of the disease spots accounts for […] of the whole leaf area.

[3] = tested on: Arabidopsis under high-temperature stress; assay: Arabidopsis under high-temperature stress; format: in vivo; settings: for PIABS (photosynthetic performance index): Arabidopsis after 45° C. for 12 h; for Heat damage index: 45° C. 12 h, recovered 7 d
Description: Take 2-amino-3-hydroxy-3-methylbutyric acid, dissolve it with distilled water, then dilute the solution with distilled water by gradient into 10 nM, 100 nM, 1,000 nM and 10,000 nM solutions, set a blank control, and meanwhile add 0.02% Tween 20 as a surfactant. Set 4 groups for each concentration and meanwhile set a room-temperature blank control. Sow about 50 Arabidopsis seeds in each bowl with a diameter of 8.5 cm, and grow in a greenhouse at 25° C., RH 60%-70% and luminous intensity of 200 μmol m^−2s^−1(16 h illumination/8 h darkness). Start treatment in 21 d of the Arabidopsis seedling stage by the method of spraying a 2-amino-3-hydroxy-3-methylbutyric acid solution on the leaf surface twice in 24 h. 24 h after the second treatment, transfer them to an illumination incubator of 45° C. for high-temperature stress treatment, and after 12 h, conduct dark treatment at room temperature for 30 min, then determine the chlorophyll fluorescence of Arabidopsis leaves by plant efficiency Handy-PEA, then transfer the plants to a 25° C. greenhouse and recover them for 7 d, observe and calculate the damage condition of the plants and calculate the heat damage levels. The heat damage grading standard is shown in Table 9 and the heat damage index calculation formula is as follows.

rat brain glial cells = settings: concentration of 10μgmL^−1; cited from earlier work
[4] = 10,000 nM (so in the source), ryegrass, high-temperature stress, vs 0 nM
[5] = 10,000 nM, Arabidopsis, high-temperature stress, vs 0 nM

CC(c1ccc(O)cc1)C(N)C(=O)O (stereo not drawn) [2-amino-3-(4-hydroxyphenyl) butyric acid]
PIABS (photosynthetic performance index) ([1]; 1 nM): 0.78 ± 0.23bc
Heat damage index ([1]; 1 nM, ryegrass): 81%
PIABS (photosynthetic performance index) ([1]; 10 nM): 0.95 ± 0.41bc
Heat damage index ([1]; 10 nM, ryegrass): 66.67%
PIABS (photosynthetic performance index) ([1]; 100 nM): 1.50 ± 0.54b
Heat damage index ([1]; 100 nM, ryegrass): 55%
PIABS (photosynthetic performance index) ([1]; 1,000 nM): 2.61 ± 1.05ab
Heat damage index ([1]; 1,000 nM, ryegrass): 35%
Decrease of heat damage index [1, 4]: 55%
Increase of PIABS [1, 4]: 366%
Disease index ([2]; 100 nM): 40.06 ± 0.98 b
CFU/mg (number of bacteria per mg of leaves) ([2]; 100 nM): 4.43 × 10^5 CFU/mg
Decrease of disease index ([2]; 100 nM): 51.11%
Decrease of number of bacteria per mg of leaves ([2]; 100 nM): 86.20%
Disease index ([2]; 1,000 nM): 36.81 ± 0.28 c
CFU/mg (number of bacteria per mg of leaves) ([2]; 1,000 nM): 3.04 × 10^5 CFU/mg
Decrease of disease index ([2]; 1,000 nM): 55.07%
Decrease of number of bacteria per mg of leaves ([2]; 1,000 nM): 90.53%
Decrease of disease index ([2]; 10,000 nM): 66.84%
Decrease of number of bacteria per mg of leaves ([2]; 10,000 nM): 91.37%

CC(C)(O)C(N)C(=O)O (stereo not drawn) [2-amino-3-hydroxy-3-methylbutyric acid]
PIABS (photosynthetic performance index) ([3]; 10 nM): 10.60 ± 0.32 c
Heat damage index ([3]; 10 nM, Arabidopsis): 60%
PIABS (photosynthetic performance index) ([3]; 100 nM): 11.27 ± 0.89 c
Heat damage index ([3]; 100 nM, Arabidopsis): 45%
PIABS (photosynthetic performance index) ([3]; 1,000 nM): 13.61 ± 0.38 b
Heat damage index ([3]; 1,000 nM, Arabidopsis): 20%
PIABS (photosynthetic performance index) ([3]; 10,000 nM): 15.60 ± 0.78 ab
Heat damage index ([3]; 10,000 nM, Arabidopsis): 15%
Decrease of heat damage index [3, 5]: 65%
Increase of PIABS [3, 5]: 106%
Toxicity to rat brain glial cells (rat brain glial cells): weakly toxic
Disease index ([2]; 100 nM): 40.90 ± 2.41 b
CFU/mg (number of bacteria per mg of leaves) ([2]; 100 nM): 9.46 × 10^5 CFU/mg
Decrease of disease index ([2]; 100 nM): 43.22%
Decrease of number of bacteria per mg of leaves ([2]; 100 nM): 70.34%
Disease index ([2]; 1,000 nM): 38.90 ± 1.96 b
CFU/mg (number of bacteria per mg of leaves) ([2]; 1,000 nM): 7.11 × 10^5 CFU/mg
Decrease of disease index ([2]; 1,000 nM): 45.60%
Decrease of number of bacteria per mg of leaves ([2]; 1,000 nM): 77.71%
CFU/mg (number of bacteria per mg of leaves) ([2]; 10,000 nM): 3.81×10^5 CFU/mg
Decrease of disease index ([2]; 10,000 nM): 58.07%
Decrease of number of bacteria per mg of leaves ([2]; 10,000 nM): 88.06%
